The record followed here is ChEMBL document CHEMBL2021887, “Olean-18-ene triterpenoids from Celastraceae species inhibit HIV replication targeting NF-kB and Sp1 dependent transcription” (Eur J Med Chem, 2012).

pIC50: −log10 of the molar value. Active and inactive are the calls of the source. No cut-off for these calls is given here.

The nature of data set [1]: Cytotoxicity against non-infected human MT2 cells after 48 hrs by CellTiter Glo assay. The data set is classed as cell-based. (In general: ATP-based viability assays read luminescence as a measure of living cells.)
For data set [2], the system named is MT2. The data set is described as follows: Cytotoxicity against non-infected human MT2 cells at 10 uM after 48 hrs by CellTiter Glo assay. The data set is classed as cell-based. As to conditions: mt2, 48 h.
Data set [3] concerns Human immunodeficiency virus 1. Briefly: Antiviral activity against X4 tropic HIV1 pNL4.3-Ren infected in human MT2 cells dosed simultaneously with virus infection measured 48 hrs post-infection by recombinant virus assay. The format is functional, organism-based. Conditions: Human immunodeficiency virus 1, pNL4.3-Ren, MT2, 48 h.
Data set [4] concerns Human immunodeficiency virus 1. The data set is described as follows: Inhibition of viral transcription in X4 tropic HIV1 pNL4.3-Luc transfected human MT2 cells at 20 uM dosed post transfection and measured 24 hrs post compound dose by luciferase reporter gene assay. The data set is classed as functional. As to conditions: Human immunodeficiency virus 1, pNL4.3-Luc, MT2, 24 h; read-out: INH. On the technique in general: A reporter such as luciferase makes a cellular process visible.

In data set [5] the test system is MT2. The data set is described as follows: Inhibition of NFkappaB transcription in X4 tropic HIV1 pNL4.3-Luc transfected human MT2 cells at 20 uM dosed post transfection and measured 24 hrs post compound dose by luciferase reporter gene assay. The format is functional.
The subject of data set [6] is MT2. Briefly: Inhibition of Sp1 transcription in X4 tropic HIV1 pNL4.3-Luc transfected human MT2 cells at 20 uM dosed post transfection and measured 24 hrs post compound dose by luciferase reporter gene assay. The data set is classed as functional.
The subject of data set [7] is Human immunodeficiency virus 1. The data set is described as follows: Antiviral activity against X4 tropic HIV1 pNL4.3-Ren infected in human MT2 cells at 10 uM dosed simultaneously with virus infection measured 48 hrs post-infection by recombinant virus assay. As to conditions: Human immunodeficiency virus 1, pNL4.3-Ren, MT2, 48 h; values are per cent of control. The data set is classed as functional.

Data set [8] has as its system Human immunodeficiency virus 1. Briefly: Antiviral activity against luciferase tagged VSV envelope pseudotyped HIV1 infected in human MT2 cells dosed simultaneously with virus infection measured 48 hrs post-infection by recombinant virus assay. The format is functional, organism-based. Conditions: Human immunodeficiency virus 1, MT2, 48 h.

As a reminder, the CC50 is the concentration giving 50% cytotoxicity. Usually pIC50 stands for the negative decadic logarithm of the IC50, by convention in mol/L. A word on the residual activity: it is the signal under treatment as a percentage of the control signal. Regarding `CC1(C)C=C2[C@H]3CC[C@@H]4[C@@]5(C)CCC(=O)C(C)(C)[C@@H]5CC[C@@]4(C)[C@]3(C)CC[C@@]2(C)C[C@H]1O`, the CC50 at 48 h in data set [1] was above 100 µM. This compound had an Activity with MT2 [2] of 74%. For the same compound, the pIC50 in data set [3] and in data set [8] was 4.70 in each case. Besides, in data set [4], the percent inhibition at 20 µM was below 50%. In addition, the inhibition result with MT2 [5] and in the data set with MT2 [6] was “Active” in each case. Besides, in data set [7], the residual activity at 10 µM was found to be 22%.

Compound `CC1(C)C=C2[C@H]3CC[C@@H]4[C@@]5(C)CC[C@H](O)C(C)(C)[C@@H]5[C@H](O)C[C@@]4(C)[C@]3(C)CC[C@@]2(C)CC1` returned a CC50 at 48 h in data set [1] of 25.5 µM. Further, the Activity in the data set with MT2 [2] came to 5%. Further, the pIC50 in data set [3] is 4.93; in data set [8], 5.36. For the same compound, the residual activity at 10 µM in data set [7] came out at 1%.

In the case of `CC1(C)C=C2[C@H]3C[C@@H](O)[C@@H]4[C@@]5(C)CC[C@H](O)C(C)(C)[C@@H]5CC[C@@]4(C)[C@]3(C)CC[C@@]2(CO)CC1`, the residual activity at 10 µM in data set [7] was 78%.

The compound `CC(=O)O[C@H]1CC[C@]2(C)[C@H]3CC[C@@H]4C5=CC(C)(C)[C@H](OC(C)=O)C[C@]5(C)CC[C@@]4(C)[C@]3(C)CC[C@H]2C1(C)C` had an Activity in the data set on MT2 [2] of 93%. The residual activity at 10 µM in data set [7] was 107%.

In data set [1], `CC1(C)[C@@H](O)CC[C@]2(C)[C@H]3CC[C@@H]4C5=C[C@](C)(CO)CC[C@]5(C)CC[C@@]4(C)[C@]3(C)CC[C@@H]12` returned a CC50 at 48 h above 100 µM. For the same compound, in the data set with MT2 [2], the Activity is reported as 67%. Moreover, the results for the pIC50 in data set [3] and in data set [8] were 4.98 and 5.18, respectively. Also, the percent inhibition at 20 µM in data set [4] was below 50%. Besides, the inhibition result with MT2 [5] and with MT2 [6] was “Active” in each case. For the same compound, the residual activity at 10 µM in data set [7] was found to be 17%.

Regarding `CC1(C)C=C2[C@H]3C[C@@H](O)[C@@H]4[C@@]5(C)CC[C@H](O)C(C)(C)[C@@H]5CC[C@@]4(C)[C@]3(C)CC[C@@]2(C)CC1` [NIVADIOL], the residual activity at 10 µM in data set [7] stood at 121%.

On to `CC1(C)C=C2[C@H]3CC[C@@H]4[C@@]5(C)CC[C@H](O)C(C)(C)[C@@H]5CC[C@@]4(C)[C@]3(C)CC[C@@]2(C)C[C@H]1O`, for which, in data set [1], the CC50 at 48 h is above 100 µM. For the same compound, in the data set on MT2 [2], the Activity was 69%. Moreover, the pIC50 in data set [3] is 4.19; in data set [8], 4.27. In data set [4], the percent inhibition at 20 µM is below 50%. Further, the inhibition result with MT2 [5] and in the data set on MT2 [6] was “Active” in each case. Moreover, the residual activity at 10 µM in data set [7] worked out at 18%.

Regarding `CC1(C)C=C2[C@H]3CC[C@@H]4[C@@]5(C)CCC(=O)C(C)(C)[C@@H]5[C@H](O)C[C@@]4(C)[C@]3(C)CC[C@@]2(C)CC1`, the CC50 at 48 h in data set [1] was above 100 µM. In the data set with MT2 [2], this compound registered an Activity of 222%. Further, the pIC50 is 4.62 in data set [3] and 5.29 in data set [8]. The percent inhibition at 20 µM in data set [4] is below 50%. In addition, the inhibition entry in the data set on MT2 [5] and in the data set with MT2 [6] was “Active” in each case. In data set [7], the residual activity at 10 µM turned out to be 28%.

Take `CC1(C)C=C2[C@H]3CC[C@@H]4[C@@]5(C)CC[C@H](O)C(C)(C)[C@@H]5CC[C@@]4(C)[C@]3(C)CC[C@@]2(C)CC1` [GERMANICOL]: the residual activity at 10 µM in data set [7] was found to be 86%.

`CC1(C)C(=O)CC[C@]2(C)[C@H]3CC[C@@H]4C5=C[C@](C)(CO)CC[C@]5(C)CC[C@@]4(C)[C@]3(C)C[C@@H](O)[C@@H]12` came in with a 50% cytotoxic concentration (CC50) at 48 h in data set [1] above 100 µM. Besides, in the data set with MT2 [2], the Activity was 62%. In addition, the pIC50 in data set [3] is 4.18; in data set [8], 4.70. The percent inhibition at 20 µM in data set [4] is below 50%. The inhibition entry in the data set with MT2 [5] and with MT2 [6] was “Active” throughout. In data set [7], the residual activity at 10 µM was 16%.

Turning to `CC(=O)OC[C@@]1(C)C=C2[C@H]3CC[C@@H]4[C@@]5(C)CCC(=O)C(C)(C)[C@@H]5CC[C@@]4(C)[C@]3(C)CC[C@@]2(C)CC1`, the Activity in the data set on MT2 [2] amounted to 116%. The residual activity at 10 µM in data set [7] is 116%.

The compound `CC(=O)O[C@H]1CC[C@]2(C)[C@H]3CC[C@@H]4C5=CC(C)(C)CC[C@]5(C)CC[C@@]4(C)[C@]3(C)C[C@@H](O)[C@H]2C1(C)C` came in with an Activity in the data set with MT2 [2] of 124%. In data set [7], the residual activity at 10 µM turned out to be 102%.

Regarding `CC1(C)C=C2[C@H]3CC[C@@H]4[C@@]5(C)CCC(=O)C(C)(C)[C@@H]5CC[C@@]4(C)[C@]3(C)CC[C@@]2(C)CC1` [GERMANICONE], the residual activity at 10 µM in data set [7] stood at 84%.

`CC1(C)C=C2[C@H]3CC[C@@H]4[C@@]5(C)CCC(=O)C(C)(C)[C@@H]5CC[C@@]4(C)[C@]3(C)CC[C@@]2(C)CC1=O` returned a CC50 at 48 h in data set [1] above 100 µM. In the data set on MT2 [2], the Activity turned out to be 222%. Moreover, the pIC50 in data set [3] is 5.39; in data set [8] it was 5.50. Further, the percent inhibition at 20 µM in data set [4] was below 50%. Also, the inhibition entry in the data set with MT2 [5] and in the data set with MT2 [6] was “Active” each time. Also, the residual activity at 10 µM in data set [7] came out at 14%.

With `CC1(C)C(=O)CC[C@]2(C)[C@H]3CC[C@@H]4C5=C[C@](C)(CO)CC[C@]5(C)CC[C@@]4(C)[C@]3(C)CC[C@@H]12`, the residual activity at 10 µM in data set [7] was 50%.
